According to patent US11312727B1, “Macrocyclic flu endonuclease inhibitors” (Janssen BioPharma, Inc., priority 2018, dated 2022):
pEC50: −log10 of the molar value.

Key:
in vitro = conditions: human, CC50, uninfected A549 cells, CellTiter-Glo
[1] = system: Influenza strain A549 A/WSN/33 (H1N1); assay: microbe, parasite or virus in culture; format: cell-based; conditions: Influenza A virus, A549, 20 h, A549 cells, influenza A/WSN/33 (H1N1), 20 hours incubation; read-out: A549_A(H1N1) EC50

SMILES | CC50 (in vitro) [nM] | pEC50 [1]
O=C1c2c(O)c(=O)ccn2N2CN1C[C@H]1C[C@@H]1COc1c(ccc(F)c1F)[C@@H]2c1ccccc1 (single isomer, unassigned) [Compound 139AA, (1a*S,8*S,17a*S)-4,5-difluoro-14-hydroxy-8-phenyl-1a,2,17,17a-tetrahydro-1H,8H-9,16-methanobenzo[b]cyclopropa[k]pyrido[1,2-f][1]oxa[5,6,9]triazacyclotridecine-13,15-dione] | 26900 | 5.08
C[C@@H]1/C=C/COc2ccccc2[C@H](c2ccccc2)N2CN1C(=O)c1c(O)c(=O)ccn12 (single isomer, unassigned) [Compound 29BA, (9*R, 18*S, E)-12-hydroxy-9-methyl-18-phenyl-6,9-dihydro-18H-10,17-methanobenzo[b]pyrido[1,2-f][1]oxa[5,6,9]triazacyclotridecine-11,13-dione] | 83100 | 5.77
CC[C@@H]1CCCOc2c(ccc(F)c2F)[C@H](c2ccccc2)N2CN1C(=O)c1c(O)c(=O)ccn12 (single isomer, unassigned) [Compound 164B, (9*R,18*S)-9-ethyl-3,4-difluoro-12-hydroxy-18-phenyl-6,7,8,9-tetrahydro-18H-10,17-methanobenzo[b]pyrido[1,2-f][1]oxa[5,6,9]triazacyclotridecine-11,13-dione] | > 100 | 8.62
O=C1c2c(O)c(=O)ccn2N2CN1C1(/C=C/COc3ccccc3[C@@H]2c2ccccc2)CCC1 (single isomer, unassigned) [Compound 106B, (18′*S,E)-12′-hydroxy-18′-phenyl-6′H,18′H-spiro[cyclobutane-1,9′-[10,17]methanobenzo[b]pyrido[1,2-f][1]oxa[5,6,9]triazacyclotridecine]-11′,13′-dione] | > 200 | < 7.00
CC[C@@H]1/C=C/COc2c(F)cccc2[C@@H](c2ccccc2)N2CN1C(=O)c1c(O)c(=O)ccn12 (single isomer, unassigned) [Compound 85AB, (9*R,18*R,E)-9-ethyl-4-fluoro-12-hydroxy-18-phenyl-6,9-dihydro-18H-10,17-methanobenzo[b]pyrido[1,2-f][1]oxa[5,6,9]triazacyclotridecine-11,13-dione] | > 200 | 8.70
O=C1c2c(O)c(=O)ccn2N2CN1C/C=C\COc1ccc(F)cc1[C@H]2c1ccccc1 (single isomer, unassigned) [Compound 22A, (18*R,Z)-2-fluoro-12-hydroxy-18-phenyl-6,9-dihydro-18H-10,17-methanobenzo[b]pyrido[1,2-f][1]oxa[5,6,9]triazacyclotridecine-11,13-dione] | > 1000 | 5.02
O=C1c2c(O)c(=O)ccn2N2CN1C/C=C\CCCOc1ccccc1C2c1ccccc1 (stereo not shown) [Compound 60, (*Z)-15-hydroxy-2-phenyl-12,13,14,16-tetrahydro-11H-4-oxa-1(1,3)-pyrido[2,1-f][1,2,4]triazina-3(1,2)-benzenacyclodecaphan-8-ene-14,16-dione] | > 2000 | < 6.00
O=C1c2c(O)c(=O)ccn2N2CN1CC/C=C\COc1cc(F)c(F)c3c1[C@H]2c1ccccc1SC3 (single isomer, unassigned) [Compound 88B, (23b*S, Z)-16,17-difluoro-6-hydroxy-10,13,18,23b-tetrahydro-9H-1,8-methano[1]benzothiepino[5,4,3-1m]pyrido[2,1-i][1,7,10,11]benzoxatriazacyclotetradecine-5,7-dione] | > 200 | 9.00
O=C1c2c(O)c(=O)ccn2N2CN1CCOCCOc1ccccc1[C@@H]2c1ccccc1 (single isomer, unassigned) [Compound 99B, (2*S)-18-hydroxy-2-phenyl-9,12-dioxa-1,15,22-triazatetracyclo[13.7.1.03,8.017,22]tricosa-3,5,7,17,20-pentaene-16,19-dione] | > 1000 | 6.78
O=C1c2c(O)c(=O)ccn2N2CN1CCCCOc1c(ccc(F)c1F)[C@H]2c1ccccc1 (single isomer, unassigned) [Compound 115A, (18*R)-3,4-difluoro-12-hydroxy-18-phenyl-6,7,8,9-tetrahydro-18H-10,17-methanobenzo[b]pyrido[1,2-f][1]oxa[5,6,9]triazacyclotridecine-11,13-dione] | > 200 | < 7.00
C[C@H]1/C=C/COc2ccccc2[C@@H](c2ccccc2)N2CN1C(=O)c1c(O)c(=O)ccn12 (single isomer, unassigned) [Compound 29AB, (9*S, 18*R, E)-12-hydroxy-9-methyl-18-phenyl-6,9-dihydro-18H-10,17-methanobenzo[b]pyrido[1,2-f][1]oxa[5,6,9]triazacyclotridecine-11,13-dione] | > 200 | 8.24
O=C1c2c(O)c(=O)ccn2N2CN1C/C=C/CCc1cc(F)c(F)cc1[C@@H]2c1ccccn1 (single isomer, unassigned) [Compound 58A, (16*R,E)-13,14-difluoro-4-hydroxy-16-(pyridin-2-yl)-7,10,11,16-tetrahydro-6,17-methanobenzo[k]pyrido[1,2-b][1,2,5]triazacyclotridecine-3,5-dione] | > 2000 | 7.36
O=C1c2c(O)c(=O)ccn2N2CN1C[C@H]1C[C@@H]1COc1cc(F)c(F)c3c1[C@@H]2c1ccccc1SC3 (single isomer, unassigned) [Compound 127AA, (1a*S,11b*S,20a*S)-22,23-difluoro-17-hydroxy-1a,2,6,11b,20,20a-hexahydro-1H-5,4-(epiprop[1]en[1]yl[3]ylidene)-12,19-methanobenzo[6,7]thiepino[4,5-c]cyclopropa[k]pyrido[1,2-f][1]oxa[5,6,9]triazacyclotridecine-16,18-dione] | > 200 | 8.82
O=C1c2c(O)c(=O)ccn2N2CN1C1(/C=C/COc3cccc4c3[C@H]2c2ccccc2SC4)CCCC1 (single isomer, unassigned) [Compound 156A, (17a′*S,*E)-12′-hydroxy-2′,17a′-dihydro-6′H-spiro[cyclopentane-1,9′-[3,4](epiprop[1]en[1]yl[3]ylidene)[10,17]methanobenzo[6,7]thiepino[4,5-c]pyrido[1,2-f][1]oxa[5,6,9]triazacyclotridecine]-11′,13′-dione] | > 100 | 9.29
CC[C@H]1/C=C/COc2cc(Cl)ccc2[C@@H](c2ccccc2)N2CN1C(=O)c1c(O)c(=O)ccn12 (single isomer, unassigned) [Compound 97AB] | > 1000 | 8.25
O=C1c2c(O)c(=O)ccn2N2CN1CCCCCc1ncccc1[C@H]2c1ccccc1 (single isomer, unassigned) [Compound 23A, (18*R)-12-hydroxy-18-phenyl-5,6,7,8,9,18-hexahydro-10,17-methanodipyrido[1,2-b:2′,3′-k][1,2,5]triazacyclotridecine-11,13-dione] | > 10000 | 4.26
Cc1cccc2c1OC/C=C\CN1CN([C@@H]2c2ccccc2)n2ccc(=O)c(O)c2C1=O (single isomer, unassigned) [Compound 110B, (18*R,Z)-12-hydroxy-4-methyl-18-phenyl-6,9-dihydro-18H-10,17-methanobenzo[b]pyrido[1,2-f][1]oxa[5,6,9]triazacyclotridecine-11,13-dione] | > 200 | < 7.00
O=C1c2c(O)c(=O)ccn2N2CN1CC/C=C/COc1ccccc1[C@H]2c1ccccc1 [Compound 10B, (2R,E)-15-hydroxy-2-phenyl-12,13,14,16-tetrahydro-11H-4-oxa-1(1,3)-pyrido[2,1-f][1,2,4]triazina-3(1,2)-benzenacyclononaphan-6-ene-14,16-dione] | > 2000 | 7.89
O=C1c2c(O)c(=O)ccn2N2CN1CCCCCCOc1ccccc1C2c1ccccc1 (stereo not shown) [Compound 55, 15-hydroxy-2-phenyl-12,13,14,16-tetrahydro-11H-4-oxa-1(1,3)-pyrido[2,1-f][1,2,4]triazina-3(1,2)-benzenacyclodecaphane-14,16-dione] | > 2000 | 6.06
O=C1c2c(O)c(=O)ccn2N2CN1C/C=C\COc1c(ccc(F)c1F)[C@@H]2c1ccccc1C(F)F (single isomer, unassigned) [Compound 165B, (18*S,*Z)-18-(2-(difluoromethyl)phenyl)-3,4-difluoro-12-hydroxy-6,9-dihydro-18H-10,17-methanobenzo[b]pyrido[1,2-f][1]oxa[5,6,9]triazacyclotridecine-11,13-dione] | > 100 | < 7.30
CC(C)[C@@H]1/C=C/COc2c(ccc(F)c2F)[C@@H](c2ccccc2)N2CN1C(=O)c1c(O)c(=O)ccn12 (single isomer, unassigned) [Compound 128AA, (9*R,18*R,*E)-3,4-difluoro-12-hydroxy-9-isopropyl-18-phenyl-6,9-dihydro-18H-10,17-methanobenzo[b]pyrido[1,2-f][1]oxa[5,6,9]triazacyclotridecine-11,13-dione] | > 200 | < 7.00
CC[C@H]1/C=C/COc2c(ccc(Cl)c2F)[C@H](c2ccccc2)N2CN1C(=O)c1c(O)c(=O)ccn12 (single isomer, unassigned) [Compound 170AA, (9*S,18*S,E)-3-chloro-9-ethyl-4-fluoro-12-hydroxy-18-phenyl-6,9-dihydro-18H-10,17-methanobenzo[b]pyrido[1,2-f][1]oxa[5,6,9]triazacyclotridecine-11,13-dione] | > 100 | < 7.30
CC(C)(C)[C@H]1/C=C/COc2cccc3c2[C@@H](c2ccccc2SC3)N2CN1C(=O)c1c(O)c(=O)ccn12 (single isomer, unassigned) [Compound 157A, (9*R,17a*S,*E)-9-(tert-butyl)-12-hydroxy-2,6,9,17a-tetrahydro-3,4-(epiprop[1]en[1]yl[3]ylidene)-10,17-methanobenzo[6,7]thiepino[4,5-c]pyrido[1,2-f][1]oxa[5,6,9]triazacyclotridecine-11,13-dione] | > 100 | 8.89
